# Measurements taken from patent US20230000806A1, “COMPOSITIONS AND METHODS FOR GLUTATHIONE ENHANCEMENT FOR USE IN BRAIN HEALTH” (SOCIETE DES PRODUITS NESTLE S.A., priority 2019, published 2023).
# Legend:
# [1] = tested on: rats; assay: Operant conditioning, progressive ratio reinforcement schedule (motivated behaviour); format: in vivo, rat; details: vs vehicle
# Procedure: Adult male outbred rats were trained for nose poke for saccharine food pellets for one week on an FR1 training schedule as described in the methods below. Rats were then treated with either normal drinking water (vehicle) or N-acetyl cysteine (NAC) in the drinking water (FIG. 22A) at a dose that was previously shown to enhance GSH levels (FIG. 22B). Following 2 weeks of treatment, rats were given an additional 2 training sessions, followed 24 h later by a progressive ratio session designed to test their motivated behaviour. During this progressive ratio session, rats have to increasingly work harder to earn the saccharine pellet, as described in the methods below. […] The breakpoint is defined as the last step in the session where the animals received a reward and is a direct correlate of their willingness to exert an effort. […] Animals: Adult male Wistar rats (Charles Rivers, Saint-German-Nuelle, France) weighing 250-275 gr at the beginning of the experiment were used for all experiments. Rats were individually housed in cages in housing colonies on a 12:12 h reversed light:dark cycle with lights on at 20:00, and lights-off at 8:00. Food and water were available ad libitum. Following a week of acclimatization to the animal facilities, rats were handled for 2 min per day for three days prior to the start of the experiments, in order to habituate to the experimenters. Operant conditioning: Ten days after introduction to the reversed day-night cycle, rats started training in a fixed ratio 1 reinforcement schedule (FR1). Operant chambers (Coulbourn Instruments, Holliston, Mass., US), placed in sound attenuating cubicles, were equipped with a grid, underneath which a tray with standard bedding material was placed for collection of feces and urine after each training session. Each chamber had one food tray and two ports placed on either side of the tray. A cue light was placed in each port and the food tray, whereas a house light was placed above the food tray. The right-hand side port of each chamber was designated as “active”, meaning that spontaneous nosepoking would result in the drop of one 45 mg food pellet (Bio-Serv, Flemington, N.J., USA) to the food tray. Upon nosepoking in the active port, the cue and house lights were turned off, while the tray light turned on and the pellet dropped to the food tray. […] Subsequently, the chamber returned to its initial condition. Each training session lasted maximally two hours or until a rat acquired 100 pellets. Each rat received six training sessions (one training on each day for five consecutive days, followed by two days without training and one training session on day 8). Only rats that finished at least two training sessions acquiring 100 pellets before the two-hour mark were used for progressive ratio experiments. Subsequently, rats were treated with N-acetyl cysteine in the drinking water (500 mg/L) or continued having access to normal water (control). After two weeks of treatment, rats were exposed to another two days of FR1 training to ensure their training performance was similar to pre-treatment levels. To test motivated behaviour, rats were exposed to a progressive ratio reinforcement schedule (progressive ratio test). Progressive ratio sessions were identical to training sessions except that the operant requirement in each trial (T) was the integer (rounded down) of the function 1.4^(T-1) starting at one nosepoke for the first three trials and increasing in subsequent trials for rats (Wanat et al. Nat Neurosci. 2013; 16(4):383-5). Progressive ratio sessions lasted two hours. Correct nosepokes (i.e. nosepokes in the active port and outside the timeout period, thus resulting in food delivery) were calculated to evaluate behavioural performance, as well as the number of acquired rewards and the last completed ratio (breakpoint). Investigation of the Nucleus accumbens was undertaken in cannulated rats which were then moved to a reverse light-dark cycle to recover for 10 days. […]
# [2] = tested on: rats; assay: GSH levels in the nucleus accumbens of treated rats; format: in vivo, rat
# [3] = tested on: Nrf2; assay: Measurement of nuclear Nrf2 in astrocytes (immunostaining); format: cell-based, rat; details: 48 hrs after treatment; for increase Nrf2 levels in the cell nucleus: significant; for Nrf2 activation: vs control (water or 0.1% DSMO)
# Procedure: Nuclear Nrf2 was measured in rat primary astrocytes in culture. The cells were stained with Nrf2 (Abcam ab89443 1:500), Tubulin (Abcam ab 89984 1:1000) antibodies and DAPI as nuclear counterstaining. We used the tubulin channel and the DAPI to segment the image in cytoplasmic and nuclear areas and measure the Nrf2 signal in these areas. We measure the average intensity in the nucleus and normalized to the average nuclear area. Cell count using DAPI was performed to establish toxicity or cell detachment for each condition. Images were taken to cover all the area of the well where cells were seeded and at least 6 technical replicates were done for each condition and for each biological replicate. Measurements were performed 48 hrs after treatment with each of the compounds: N-Acetylcysteine dissolved in water, while Puerarine, Sulfurophane, Taurine at different doses were dissolve in a 0.1% DSMO final solution. They were compared to the control in each condition which was water or 0.1% DSMO alone. Results were compared to the control condition for each biological replicate and for each condition. Statistics were done using Kruskal-Wallis Multiple Comparison test.
# [4] = tested on: rat primary astrocytes; assay: Cytoplasmic reactive oxygen species (ROS) measurement with CellROX Deep Red; format: cell-based; details: 48 hrs after treatment; oxidative stress triggered by 250 μM tBHP for 1 hour; vs control
# Procedure: Cytoplasmic ROS was measured in rat primary astrocytes in culture by CellROX® Deep Red reagent, a novel cell-permeant dye with absorption/emission maxima of ˜644/665 nm. CellROX® Deep Red reagent while in a reduced state is non-fluorescent and becomes fluorescent upon oxidation by reactive oxygen species with emission maxima ˜665. CellMask™-green stains plasma membrane and DAPI stains nuclei. We used the green channel and the dapi to segment the image in cytoplasmic and nuclear areas and measure the CellROX deep red signal in these areas. As CellROX® Deep Red is a better read out for cytoplasmic ROS, we measure the average intensity in the cytoplasm and normalized to the average cytoplasmic area. Cell count using DAPI was performed to establish toxicity or cell detachment for each condition. Images were taken to cover all the area of the well where cells were seeded and at least 4 technical replicates were done for each condition and for each biological replicate. Measurements were performed at 48 hrs after treatment at baseline and after oxidative stress where oxidative stress was triggered by 250 μM tBHP for 1 hour. Results were compared to the control condition at baseline for each biological replicate and for each condition.
# [5] = tested on: rat primary astrocytes; assay: Intracellular GSH by GSH-Glo Assay in rat primary astrocyte culture; format: cell-based; details: standard culture conditions (no cysteine depletion); 48 hrs after treatment; normalized to total proteins
# Procedure: Intracellular GSH was measured in rat primary astrocytes in culture by using a GSH-Glo™ Assay, which is a luminescent-based assay for the detection and quantification of reduced and/or total glutathione levels in cells. The assay converted luciferin derivatives into luciferin in the presence of GSH. The reaction was catalyzed by a glutathione S-transferase (GST) enzyme supplied in the kit. The luciferin formed was detected in a coupled reaction using Ultra-Glo™ Recombinant Luciferase that generated a glow type luminescence that was proportional to the amount of glutathione present in cells. A standard curve was used for each biological replicate and at least 4 technical replicates were done for each condition and for each biological replicate. 10% of lysate of each technical and biological replicate was used to measure protein amount by BCA and used to normalize the GSH intracellular content to total proteins. Buthionine sulfoximine (BSO) a specific inhibitor of γ-glutamylcysteine ligase (GCL) was added at 15 mM at the time of the start of the treatment to confirm the specificity of the readout. Measurements were performed 48 hrs after treatment. Results were compared to the control condition for each biological replicate and for each condition.
# [6] = tested on: rat primary astrocytes; assay: Intracellular GSH in astrocytes in medium reduced in cysteine and methionine; format: cell-based; details: medium depleted of methionine and cystine, supplemented with 15% FBS
# Procedure: Intracellular GSH was measured in rat primary astrocytes in culture by using a GSH-Glo™ Assay, which is a luminescent-based assay for the detection and quantification of reduced and/or total glutathione levels in cells. The assay converted luciferin derivatives into luciferin in the presence of GSH. The reaction was catalyzed by a glutathione S-transferase (GST) enzyme supplied in the kit. The luciferin formed was detected in a coupled reaction using Ultra-Glo™ Recombinant Luciferase that generated a glow type luminescence that was proportional to the amount of glutathione present in cells. A standard curve was used for each biological replicate and at least 4 technical replicates were done for each condition and for each biological replicate. 10% of lysate of each technical and biological replicate was used to measure protein amount by BCA and used to normalize the GSH intracellular content to total proteins. […] Measurements were performed 48 hrs after treatment. […] To measure GSH increase after N-acetyl cysteine (Nac) and L-cysteine supplementation, rat primary astrocytes were cultured in medium depleted of methionine (a precursor of cysteine) and cystine but still supplemented with 15% FBS to not have a full depletion but rather a reduction of these amino acids. Experiments were performed only with the same batch of FBS to avoid any difference in amino-acid content amongst batches. […]
# [7] = single infusion in the Nucleus Accumbens, 1 μl of 7 μg/μl, 24 hours before
# [8] = NAC in the drinking water (500 mg/L), 2 weeks
structure (smiles),measurement,setting,value
"CCCCS(=N)(=O)CCC(N)C(=O)O (stereo not drawn) [BSO, Buthionine sulfoximine]",change in breakpoint (PR-schedule),[1]; [7],−68%
same,change in correct nosepokes (PR-schedule),[1]; [7],−60%
same,change in rewards (PR-schedule),[1]; [7],−22%
same,reduction of GSH levels in the Nucleus Accumbens,"[2]; single infusion in the Nucleus Accumbens, 1 μl of 7 μg/μl, 24 hours before the test, vs vehicle",29%
"C[N+](C)(C)C(Cc1c[nH]c(S)n1)C(=O)O.[OH-] (stereo not drawn) [Ergothioneine, 1-carboxy-2-[2-mercaptoimidazole-4-(or 5)-yl]ethyl]-trimethyl-ammonium hydroxide]",increase Nrf2 levels in the cell nucleus,[3]; 0.5 mM,≤ 18%
same,reactive oxygen species after oxidative stress,[4],decreases reactive oxygen species
same,intracellular glutathione,[5],increases intracellular glutathione
N[C@@H](CS)C(=O)O [L-cysteine],GSH intracellular level,[6],significantly increase the GSH intracellular level
CCNC(=O)CC[C@H](N)C(=O)O [L-theanine],reactive oxygen species after oxidative stress,[4],decreases reactive oxygen species
same,intracellular glutathione,[5],increases intracellular glutathione
"CC(=O)N[C@@H](CS)C(=O)O [N-Acetylcysteine, reference compound]",breakpoint level in progressive ratio session,[1]; [8],significantly higher breakpoint level
same,nose pokes in progressive ratio session,[1]; [8],significantly more nose pokes
same,number of rewards in progressive ratio session,[1]; [8],greater number of rewards
same,Nrf2 activation,[3],does not activate Nrf2
same,GSH intracellular level,[6],significantly increase the GSH intracellular level
same,GSH in the nucleus accumbens,"[2]; NAC in the drinking water (500 mg/L), 2 weeks, vs vehicle treated rats",enhanced GSH in the nucleus accumbens
same,reactive oxygen species after oxidative stress,[4],decreases reactive oxygen species
same,intracellular glutathione,[5],does not increase intracellular glutathione
O=c1c(-c2ccc(O)cc2)coc2c([C@@H]3O[C@H](CO)[C@@H](O)[C@H](O)[C@H]3O)c(O)ccc12 [Puerarine],increase Nrf2 levels in the cell nucleus,[3]; highest dose of 10 μm,≤ 20%
same,reactive oxygen species after oxidative stress,[4],decreases reactive oxygen species after oxidative stress in a dose dependent manner
same,intracellular glutathione,[5],increases intracellular glutathione
C[S+]([O-])CCCCN=C=S (stereo not drawn) [Sulfurophane],increase Nrf2 levels in the cell nucleus,[3]; 2 μM,≤ 20%
same,reactive oxygen species after oxidative stress,[4],decreases reactive oxygen species
same,intracellular glutathione,[5],increases intracellular glutathione
"NCCS(=O)(=O)O [Taurine, 2-aminoethanesulfonic acid]",Nrf2 activation,[3],does not activate Nrf2
same,reactive oxygen species after oxidative stress,[4],decreases reactive oxygen species
same,intracellular glutathione,[5],increases intracellular glutathione
